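Each compound was tested at five concentrations against cells in 96-well plates for 48 hours. Abbreviation: GI50, concentration required for 50% inhibition of growth.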 Active and inactive are the calls of the source. No stated cut-off is given here; in the data, active = GI50 up to about 1.1 µM and inactive = higher.

Test systems include A498; A549; EKVX; HL-60; HOP-92; HT-29; IGROV-1; KM12; M14; MCF7; NCI/ADR-RES; OVCAR-3; OVCAR-4; SF-295; SK-MEL-5; SR; SW-620; U-251; UO-31; HCC 2998.
Test in all cases: NCI anticancer screen, dose series, 48 h

For the compound `O=C(O)c1cc(-c2ccc3cc4c(cc3c2)OCO4)nc2ccccc12`, the GI50 with A498 is 23.9 µM (inactive); in the assay with A549, 21.1 µM (inactive); in the assay with EKVX, 14.4 µM (inactive); with HL-60, 16.5 µM (inactive); with HOP-92, 20.1 µM (inactive); in the assay on HT-29 it was 25.9 µM (inactive). In addition, the GI50 is 29 µM (inactive) in the assay with IGROV-1; > 100 µM (inactive) in the assay on KM12; 28 µM (inactive) with M14; 32.2 µM (inactive) with MCF7; 40.7 µM (inactive) with NCI/ADR-RES; 41.6 µM (inactive) with OVCAR-3. In addition, the GI50 is > 100 µM (inactive) in the assay on OVCAR-4; 23.8 µM (inactive) in the assay on SF-295; 24 µM (inactive) in the assay with SK-MEL-5; 7.45 µM (inactive) with SR; 45.2 µM (inactive) in the assay on SW-620; 19.7 µM (inactive) with U-251. The GI50 with UO-31 was 11.5 µM (inactive).

Regarding `CCC1(OC(=O)CN)C(=O)OCc2c1cc1n(c2=O)Cc2cc3ccccc3nc2-1` (stereo not given), the GI50 was 0.0512 µM (active) with A498; 0.011 µM (active) with A549; 0.598 µM (active) in the assay with EKVX; 0.0664 µM (active) in the assay on HCC 2998; 0.00764 µM (active) in the assay on HL-60; 0.547 µM (active) in the assay with HOP-92. Further, the GI50 was 0.0411 µM (active) in the assay on IGROV-1; 0.128 µM (active) in the assay on KM12; 0.01 µM (active) in the assay on M14; 0.01 µM (active) in the assay with MCF7; 0.0118 µM (active) in the assay on NCI/ADR-RES; 0.0944 µM (active) with OVCAR-3. The GI50 was 0.12 µM (active) in the assay on OVCAR-4; 0.01 µM (active) with SF-295; 0.01 µM (active) in the assay on SR; 0.067 µM (active) in the assay on SW-620; 0.01 µM (active) in the assay with U-251; 0.0114 µM (active) in the assay with UO-31.

Take `CCCS(=O)(=O)O`: the GI50 with A498, in the assay with A549, with EKVX, with HL-60, with HOP-92 and in the assay with HT-29 was > 100 µM (inactive) in each case. For the same compound, the GI50 with IGROV-1, in the assay on KM12, in the assay with M14, in the assay on MCF7, in the assay with NCI/ADR-RES and in the assay with OVCAR-3 was > 100 µM (inactive) throughout. Further, the GI50 in the assay with OVCAR-4, in the assay with SF-295, in the assay on SK-MEL-5, in the assay on SR, in the assay with SW-620 and in the assay on U-251 was > 100 µM (inactive) throughout. Also, the GI50 in the assay with UO-31 is > 100 µM (inactive).

`COc1ccccc1C(=O)NCC1CCCN2CCCCC12` (stereo not given): the GI50 was > 100 µM (inactive) with A498; 93.3 µM (inactive) in the assay on A549; > 100 µM (inactive) with EKVX; > 100 µM (inactive) in the assay on HCC 2998; > 100 µM (inactive) in the assay on HL-60; > 100 µM (inactive) with HOP-92. The GI50 in the assay with HT-29, in the assay with IGROV-1, with KM12, in the assay on M14, in the assay with MCF7 and in the assay on NCI/ADR-RES was > 100 µM (inactive) throughout. In addition, the GI50 was > 100 µM (inactive) in the assay with OVCAR-3; > 100 µM (inactive) in the assay with OVCAR-4; 1.24 µM (inactive) in the assay on SF-295; > 100 µM (inactive) in the assay with SK-MEL-5; > 100 µM (inactive) in the assay with SR; > 100 µM (inactive) in the assay with SW-620. Also, the GI50 in the assay on U-251 and in the assay on UO-31 was > 100 µM (inactive) each time.

For the compound `COc1ccc(C(CC(=O)c2ccc(O)cc2)C(C(=O)c2ccc(O)cc2)C(c2ccc(OC)cc2)C2C(=O)NC(=S)NC2=O)cc1` (stereo not given), the GI50 in the assay on A498 was 38.9 µM (inactive); with A549, 21.9 µM (inactive); with HL-60, 32.1 µM (inactive); in the assay with HOP-92, 46.9 µM (inactive); with HT-29, 27 µM (inactive); in the assay on IGROV-1, 15.5 µM (inactive). The GI50 is 16.6 µM (inactive) in the assay on KM12; 20.8 µM (inactive) in the assay with M14; 14.5 µM (inactive) in the assay with MCF7; 17.9 µM (inactive) with NCI/ADR-RES; 18.8 µM (inactive) with OVCAR-4; 20 µM (inactive) in the assay with SF-295. Also, the GI50 in the assay on SK-MEL-5 was 21.5 µM (inactive); with SR it was 38 µM (inactive); in the assay on SW-620, 23.1 µM (inactive); in the assay with U-251, 24.5 µM (inactive); in the assay on UO-31, 17.5 µM (inactive).

Turning to `CC(C)(C)C(=O)OCC1C(=O)OCC1C(=O)N1Cc2cc3ccccc3nc2C1` (stereo not given), the GI50 with A498 was 13.2 µM (inactive); in the assay with A549, 15.2 µM (inactive); in the assay on EKVX it was 7.41 µM (inactive); with HCC 2998 it was 15.5 µM (inactive); with HL-60, 0.748 µM (active); with HOP-92, 1.5 µM (inactive). Further, the GI50 with HT-29 was 3.5 µM (inactive); with IGROV-1, 15 µM (inactive); in the assay on KM12 it was 15.8 µM (inactive); in the assay on M14 it was 2.8 µM (inactive); in the assay with MCF7 it was 3.47 µM (inactive); in the assay on NCI/ADR-RES it was 4.92 µM (inactive). The GI50 in the assay with OVCAR-3 is 4.07 µM (inactive); in the assay on OVCAR-4, 2.38 µM (inactive); in the assay on SF-295, 14.3 µM (inactive); in the assay on SK-MEL-5, 15.2 µM (inactive); with SR, 0.757 µM (active); in the assay with SW-620, 1.57 µM (inactive). Moreover, the GI50 in the assay with U-251 is 9.2 µM (inactive); in the assay with UO-31 it was 2.47 µM (inactive).

In the case of `COC1OC(CS(=O)(=O)O)C(O)C(O)C1O` (stereo not given), the GI50 in the assay with A498, with HCC 2998, in the assay with HL-60, in the assay on HOP-92, in the assay with HT-29 and in the assay on IGROV-1 was > 100 µM (inactive) each time. Moreover, the GI50 in the assay on KM12, with M14, with MCF7, in the assay with NCI/ADR-RES, in the assay with OVCAR-3 and in the assay with OVCAR-4 was > 100 µM (inactive) throughout. The GI50 in the assay with SF-295, in the assay with SK-MEL-5, in the assay on SR, in the assay with SW-620, in the assay with U-251 and in the assay on UO-31 was > 100 µM (inactive) throughout.

For the compound `O=C1CC(CC(OCc2ccccc2)C(COCc2ccccc2)OCc2ccccc2)CC(=O)N1` (stereo not given), the GI50 in the assay on A498 is 30.3 µM (inactive); with A549, 27.4 µM (inactive); in the assay on EKVX, 19.7 µM (inactive); in the assay on HCC 2998, 36.6 µM (inactive); in the assay with HL-60, 28 µM (inactive); in the assay with HOP-92, 39.2 µM (inactive). The GI50 is 24.7 µM (inactive) with HT-29; 70.5 µM (inactive) with IGROV-1; 37.9 µM (inactive) in the assay with KM12; 39.4 µM (inactive) with M14; 33.1 µM (inactive) in the assay with MCF7; 24.7 µM (inactive) in the assay with NCI/ADR-RES. Besides, the GI50 in the assay with OVCAR-3 was 37.4 µM (inactive); in the assay with OVCAR-4 it was 38.4 µM (inactive); with SF-295, 34.9 µM (inactive); with SK-MEL-5 it was 15.4 µM (inactive); in the assay with SR it was 34.3 µM (inactive); with SW-620, 50.6 µM (inactive). Also, the GI50 in the assay on U-251 was 32.5 µM (inactive); with UO-31 it was 16 µM (inactive).

`Nc1cc2c(nc3c4ccccc4c(N)cc3[n+]2-c2cccc3ccccc23)c2ccccc12.Nc1cc2c(nc3c4ccccc4ccc3[n+]2-c2cccc3ccccc23)c2ccccc12`: the GI50 in the assay on A498 is 3.48 µM (inactive); in the assay with A549, 1.39 µM (inactive); in the assay on EKVX, 1.61 µM (inactive); with HL-60, 1.41 µM (inactive); in the assay with HOP-92, 1.2 µM (inactive); in the assay on HT-29, 1.36 µM (inactive). Besides, the GI50 with IGROV-1 was 1.71 µM (inactive); in the assay on KM12 it was 1.31 µM (inactive); in the assay with M14 it was 2 µM (inactive); with MCF7 it was 0.507 µM (active); in the assay with NCI/ADR-RES it was 8.18 µM (inactive); in the assay on OVCAR-3, 0.593 µM (active). In addition, the GI50 is 1.71 µM (inactive) with OVCAR-4; 2.2 µM (inactive) in the assay with SF-295; 1.7 µM (inactive) in the assay on SK-MEL-5; 1.24 µM (inactive) with SR; 1.55 µM (inactive) with SW-620; 0.341 µM (active) in the assay with U-251. For the same compound, the GI50 with UO-31 was 2.59 µM (inactive).

Take `O=C(O)c1ccc(NS(=O)(=O)Cc2ccccc2)cc1`: the GI50 with A498, in the assay with A549, in the assay with EKVX, in the assay with HCC 2998, in the assay on HL-60 and in the assay with HOP-92 was > 100 µM (inactive) in each case. The GI50 in the assay with HT-29, with IGROV-1, with KM12, with M14, in the assay on MCF7 and in the assay with NCI/ADR-RES was > 100 µM (inactive) each time. Further, the GI50 in the assay with OVCAR-3, in the assay with OVCAR-4, in the assay on SF-295, with SK-MEL-5, with SR and in the assay with SW-620 was > 100 µM (inactive) throughout. Besides, the GI50 in the assay on U-251 and in the assay with UO-31 was > 100 µM (inactive) each time.

The values above are taken from ChEMBL document CHEMBL1201862, “PubChem BioAssay data set” (2004).
